# From publication PMC10385989, “Evaluation of the Ability of PAMPA Membranes to Emulate Biological Processes through the Abraham Solvation Parameter Model” (Membranes, 2023)
# Details: pH 7.4
# Procedure: First, the top part of the skin-PAMPA (PAMPA-Certramide) sandwich, which contains the membrane, was hydrated overnight with the hydration solution. Different buffer solutions at pH 3, 4, 5, 6, 7, and 7.4 were prepared to solve the samples. To prepare them, 25 mL of concentrated PRISMA HTTM was diluted to 1 L with water, and 0.5 M NaOH was added to obtain the desired pH. Above pH 8, the skin-PAMPA membrane becomes degraded [40], so pH 7.4 was the highest pH used in the present work. In order to measure the intrinsic permeability, each sample was dissolved in the buffer solution with a pH that ensured the presence of the neutral form. […] In all instances, the pH of the acceptor compartment was 7.4.
# A total of 180 µL of sample solution was placed in the donor compartment, and 200 µL of pH 7.4 buffer was placed in the acceptor compartment.
# According to previous studies, in which the conditions in the skin-PAMPA measurements were optimized [40], the skin-PAMPA sandwich was incubated at 32 °C for 4 h. Afterwards, the concentration of the compounds was measured in both the donor and the acceptor plates. Additionally, the initial sample solution was quantified. […] The injection volume was 5 μL, and 3 to 5 replicate measurements were performed per compound. Every well-plate contained only one compound.
# When the pH is different on the two sides of the membrane, a gradient-pH is created and the permeation of ionizable molecules can be altered. This gradient-pH implies two different permeability coefficients, one on each direction of the membrane, denoted by the subscript (D→A) or (A→D). Equation (5) has two unknowns, Pe(A→D) and Pe(D→A), so an iterative method has to be used to solve it. To this purpose, two different experiments were carried out for each compound, one with a gradient-pH and the other with an iso-pH, that is, the same pH in both compartments (7.4). For the iso-pH, Pe(A→D) = Pe(D→A).
# Finally, Equation (5) was iteratively solved for Pe(D→A). Initially, ra was assumed to be rv, but the ra value was improved after each iteration by using the newly obtained Pe(D→A). The process continued until self-consistency was reached within the precision required (0.001). The Solver tool in Microsoft Excel was used for the iterative process.
# In the donor compartment, a pH was used in which the compound was in its neutral form, whereas in the acceptor compartment, the buffer was at pH 7.4.
row,SMILES,"log P0 (intrinsic permeability, PAMPA-Certramide)"
1,COC(=O)Cc1ccc(O)cc1 [4-hydroxymethyl phenylacetate],-5.07
2,"CCC1(CC)C(=O)NC(=O)NC1=O [5,5-diethylbarbituric acid (barbital), 5,5-diethylbarbituric acid]",-5.75
3,CCC1(c2ccccc2)C(=O)NC(=O)NC1=O [5-ethyl-5-phenylbarbituric acid],-6.05
4,Nc1ccccc1 [aniline],-4.55
5,CCNc1nc(Cl)nc(NC(C)C)n1 [atrazine],-4.67
6,C[C@]12CCC(=O)C=C1CC[C@@H]1[C@@H]2CC[C@@]2(C)[C@H]1CC[C@]2(O)C(=O)CO [corteloxone],-5.45
7,CC(=O)[C@@]1(O)CC[C@H]2[C@@H]3CCC4=CC(=O)CC[C@]4(C)[C@H]3CC[C@@]21C [hydroxiprogesterone],-4.70
8,COc1ccccc1 [methyl phenyl ether],-4.34
9,CC(=O)CC(c1ccccc1)c1c(O)c2ccccc2oc1=O (stereo not drawn) [warfarin],-4.63

# Details: cited from earlier work
row,SMILES,"log P0 (permeability, PAMPA-IPM)"
1,CCC1(c2ccccc2)C(=O)NC(=O)NC1=O [5-ethyl-5-phenylbarbituric acid],-5.15
2,CN1CCC[C@H]1c1cccnc1 [nicotine],-4.58
3,Oc1ccccc1 [phenol],-4.14
